In publication PMC5048338, “Discovery of 4,6-disubstituted pyrimidines as potent inhibitors of the heat shock factor 1 (HSF1) stress pathway and CDK9” (Medchemcomm, 2016):
pIC50: −log10 of the molar value. Where two headings read alike, the source gives them in different places.

Tests used:
CDK2/cyclinE = CDK2/cyclinE (Homo sapiens, UniProt P24941); experiment: CDK2 enzyme assay: off-chip mobility shift assay; assay type: biochemical; parameters: purchased Upstate/Millipore; conditions: for pIC50: biochemical, CDK2/cyclinE, average of two determinations; for fold drop in potency in the CDK2 assay / fold improvement in CDK2 inhibition: relative to compound 3
Protocol: CDK2 enzyme assay: Off-chip Mobility SHIFT Assay
All reagents were purchased from Sigma-Aldrich unless otherwise specified. Inhibition of CDK2/cyclinE activity was quantified using an off-chip incubation, mobility shift assay, which uses a microfluidic chip (Caliper Life Sciences) to measure the conversion of a fluorescent peptide substrate to phosphorylated product. An Off-chip Mobility Shift Chip with 12 sippers (Caliper Life Sciences) was prepared for use according to the manufacturer’s instructions using Coating Reagent #3 (Caliper Life Sciences). The off-chip incubation was carried out in white, 384-well, flat bottom, low volume assay plates (Greiner). 5 µL peptide mix (1.5 µM substrate peptide (fluorescein-QSPKKG-CONH2, Bachem) and 90 µM ATP in kinase base buffer (50 mM HEPES, pH7.5 (Calbiochem), 0.06% CHAPSO)) were added to each well of the prepared compound plates which contained 120 nL compound stock solution per well. The reaction was then initiated by the addition of 6 µL enzyme mix (1.0 nM CDK2/cyclin E (Upstate/Millipore), 1.0 mM DTT and 5.0 mM MgCl2 in kinase base buffer). After incubation for 60 min at room temperature, each reaction was terminated by the addition of 10µL of stop solution containing 100 mM HEPES pH 7.5 (Calbiochem), 0.033% Brij-35, 0.22% Coating Reagent #3 (Caliper Life Sciences), 44 mM EDTA and 5 % DMSO. Reaction products were analysed using a Caliper LabChip LC3000 instrument and peak height was used to calculate percentage conversion of substrate to product.
For compound response testing, a 12 point compound concentration range was used. Compounds were acoustically dosed (Echo 555; Labcyte) into assay-ready plates using 11 half log intervals from 100 μM to […] plus a 12th point at 0.01 μM. Each well was backfilled with the required volume up to 120 nL of 100% DMSO to ensure a final 1% v/v DMSO concentration in the assay. In addition to the compound test wells, each plate carried maximum and minimum controls. Staurosporine at 10 μM was used to inhibit CDK2 activity for the minimum control. As a maximum control, 120 nL pure DMSO was added to the wells. Each plate contained at least 11 randomly distributed maximum and minimum controls. After the addition of compounds to the assay plates, the assay was performed as detailed above. Percentage conversion of substrate to product was used to calculate the effect of each compound on the kinase activity of CDK2/cyclinE. Enzyme inhibition model 3, non-linear curve fit analysis within OriginLab™ software was used to fit dose response curves and estimate the […]
concentration of compound required to reduce the enzyme activity to 50% of the conversion calculated from an average of the maximum controls.
Cell-based ELISA (Cellisa) for HSP72 expression
To follow HSP72 protein expression, a product of HSF1 transcriptional activity, Cellisa was developed. Cells (5-8x10^4cells/ml) were seeded into 96-well plates and incubated at 37 °C for 48 h.
Compounds were then added at a range of concentrations and incubated for 1 h before addition of 17-AAG (250 nM). Cells were then incubated for 18 h. The medium was removed and cells were fixed with fixing solution (4% paraformaldehyde, 0.3% TritonX-100 in PBS) for 30 min at 4 °C. The plates were then washed with 0.1% Tween-20/deionised water before blocking with 5% milk for 30 min at 37 °C. After washing the plates, HSP72 antibody (SPA-810, Enzo Life) was added for 1.5 h at 37 °C.
Following 4 x washes, the plates were incubated with europium-labelled anti-mouse antibody (0.6ug/ml) in Delfia assay buffer (Perkin Elmer) for 1 h at 37 °C. After washing the plates, Delfia enhancement solution was added, shaken for 10 min before reading in the Envision plate reader (Perkin-Elmer) with excitation at 340 nm and emission at 615 nm. The plates were washed again before protein determination using the BCA assay. The europium counts were normalised for the amount of protein in each well. The 50% inhibitory concentration value of the compound was then calculated and presented. […]

HSF1-stress pathway = experiment: ArrayScan HSP72 protein assay (HSF1-stress pathway inhibition, 17-AAG induced); conditions: for pIC50: Homo sapiens, U2OS, read-out: HSF1 IC50; for fold drop in potency in the HSF1-stress pathway assay / fold increase in HSF1-stress pathway inhibition: relative to compound 3
Protocol: To discover inhibitors of the HSF1-stress pathway, we employed an automated cellular imaging and analysis method (ArrayScan™) that quantifies the ability of a compound to suppress the expression of the HSF1-mediated inducible HSP70 isoform, HSP72.
U2OS cells (1500 per well) were plated in 40 μL of DMEM media (containing 10% fetal calf serum and 2 mM Glutamax T-1) in costar 384-well plates and left overnight at 37 °C and 5% CO2 to adhere.
treatment with compound, all wells except min wells were dosed with 17AAG diluted in DMSO (10
°C and 5% CO2. The following day the cells were fixed by addition of 20 μL/well of 12% formaldehyde with 1:1700 Hoechst in PBS for 10 min at room temperature. The fixative was decanted and the wells washed once with 50 μL of phosphate buffer saline (PBS).The PBS was subsequently aspirated, and the cells were permeabilized by addition of 20 μL/well of PBS 0.3% Triton X-100 for 20 min at room temperature. The wells were then washed with 80 μL of PBS prior to the addition of 20 μL of combined primary and secondary antibodies diluted in PBS (1:10 000 mouse anti-Hsp72
11001 molecular probes), for 2 h at room temperature. The wells were then washed with 50 μL of PBS. Finally, 50 μL of PBS was added to each well, and the plates were sealed ready to analyze.
Analysis was carried out using a Cellomics Arrayscan VTI instrument and the Cellomics Arrayscan Compartmental Analysis algorithm to measure cellular levels of HSP72.
100 μM to 0.1 μM plus a 12th point at 0.01 μM. Each well was backfilled with the required volume up to 120 nL of 100% DMSO to ensure a final 1% v/v DMSO concentration in the assay. In addition to the compound test wells, each plate carried maximum and minimum controls. Staurosporine at 10 μM was used to inhibit CDK2 activity for the minimum control. As a maximum control, 120 nL pure DMSO was added to the wells. Each plate contained at least 11 randomly distributed maximum and minimum controls. After the addition of compounds to the assay plates, the assay was performed as detailed above. Percentage conversion of substrate to product was used to calculate the effect of each compound on the kinase activity of CDK2/cyclinE. Enzyme inhibition model 3, non-linear curve fit analysis within OriginLab™ software was used to fit dose response curves and estimate the

CDK9/cyclin T1 = target: T1, CDK9/cyclin T1 (Homo sapiens, UniProt P50750); experiment: EMD Millipore (Eurofins) CDK panel; assay type: biochemical; conditions: EMD Millipore screening panel, N = 1
T1 construct: purchased EMD Millipore screening panel (now Eurofins)
T1 sequence (P50750 whole entry): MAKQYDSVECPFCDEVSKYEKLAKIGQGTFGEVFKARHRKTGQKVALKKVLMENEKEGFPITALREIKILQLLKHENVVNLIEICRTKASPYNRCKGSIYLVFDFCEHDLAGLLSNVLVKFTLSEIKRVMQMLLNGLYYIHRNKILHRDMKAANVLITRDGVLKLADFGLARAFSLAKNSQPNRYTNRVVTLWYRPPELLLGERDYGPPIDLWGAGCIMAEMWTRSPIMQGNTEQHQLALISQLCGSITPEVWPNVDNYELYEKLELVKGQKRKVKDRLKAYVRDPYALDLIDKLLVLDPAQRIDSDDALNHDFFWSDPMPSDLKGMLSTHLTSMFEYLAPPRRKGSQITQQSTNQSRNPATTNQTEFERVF
T1 sequence (O60563 whole entry partner): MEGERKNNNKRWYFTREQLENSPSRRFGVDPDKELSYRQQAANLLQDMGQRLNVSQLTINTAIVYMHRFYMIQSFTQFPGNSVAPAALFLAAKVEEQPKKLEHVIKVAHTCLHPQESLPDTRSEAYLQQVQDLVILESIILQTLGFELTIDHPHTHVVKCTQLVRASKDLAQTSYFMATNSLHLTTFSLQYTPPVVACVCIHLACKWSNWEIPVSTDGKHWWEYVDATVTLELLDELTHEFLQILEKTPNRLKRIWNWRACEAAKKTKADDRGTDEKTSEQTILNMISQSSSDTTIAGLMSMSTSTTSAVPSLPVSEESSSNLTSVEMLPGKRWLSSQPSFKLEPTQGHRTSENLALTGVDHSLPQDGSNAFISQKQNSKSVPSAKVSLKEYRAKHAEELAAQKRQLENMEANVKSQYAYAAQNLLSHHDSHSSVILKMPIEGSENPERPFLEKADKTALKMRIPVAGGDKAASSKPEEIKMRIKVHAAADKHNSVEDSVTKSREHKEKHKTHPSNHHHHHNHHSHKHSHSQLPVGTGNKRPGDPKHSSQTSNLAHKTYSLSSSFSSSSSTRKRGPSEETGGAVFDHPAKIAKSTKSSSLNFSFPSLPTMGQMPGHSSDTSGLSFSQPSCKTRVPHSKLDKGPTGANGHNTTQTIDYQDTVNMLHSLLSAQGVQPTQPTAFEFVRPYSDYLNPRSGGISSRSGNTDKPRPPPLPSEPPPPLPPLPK
Protocol: Therefore 4,6-pyrimidine 3 was submitted to a EMD Millipore CDK panel to assess potency across the selected CDK family members (Table 3). Modest activity was observed against several CDKs; […]. […]. page 4: […]
(§1) mM Mg Acetate and [9-33P]-ATP (specific activity approx. 500 cpm/pmol, concentration as required). The reaction is initiated by the addition of the MgATP mix. After incubation for 40 minutes at room temperature, the reaction is stopped by the addition of 3% phosphoric acid solution. 10 μL of the reaction is then spotted onto a P30 filtermat and washed three times for 5 minutes in 75 mM phosphoric acid and once in methanol prior to drying and scintillation counting. […]
CDK9/cyclinT1 (h) is incubated with 8 mM MOPS pH 7.0, 0.2 mM EDTA, 100 μM […]
, 10 mM MgAcetate and […]
as §1, with “(specific” for “mM Mg Acetate and [9-33P]-ATP (specific”

[1] = tested on: HSF1-mediated HSP72 induction; experiment: Cell-based ELISA (Cellisa) for HSP72 expression; conditions: Homo sapiens, U2OS, read-out: HSF1 IC50 (cell-ELISA, HSP72 induction inhibition)
U2OS cells = experiment: SRB cell growth inhibition assay; assay type: cell-based; conditions: Homo sapiens, 96 h, read-out: SRB GI50
CDK9/CyclinT1 [2] = experiment: Adapta screen assay, Life Technologies; conditions: ratio between CDK2/7/9, below limit of assay detection
CDK9/CyclinT1 [3] = conditions: ratio between CDK2/7/9; ref Yin et al., Mol. Cancer Ther., 2014, 13, 1442-1456; cited from earlier work
CDK7/CyclinH/MAT1 = conditions: ratio between CDK2/7/9; ref Yin et al., Mol. Cancer Ther., 2014, 13, 1442-1456; cited from earlier work

SMILES	pIC50 (CDK2/cyclinE)	pIC50 (HSF1-stress pathway)	other results
OCCc1ccc(Nc2cc(-n3cnc4ccccc43)ncn2)cc1 [Compound 1]	5.94	5.70	–
CN(C)CCOc1ccc(Nc2cc(-n3cnc4ccccc43)ncn2)cc1 [Compound 2]	4.70	5.87	fold difference in activity between the CDK2 and HSF1-stress pathway assays (HSF1-stress pathway; CDK2 IC50 versus HSF1 IC50): 15 fold
CN(C)CCOc1ccc(Nc2cc(-n3ccnc3)ncn2)nc1 [Compound 6]	5.15	5.21	fold drop in potency in the CDK2 assay (CDK2/cyclinE): 12 fold; fold drop in potency in the HSF1-stress pathway assay (HSF1-stress pathway): 77 fold; pIC50 (CDK9/cyclin T1): 7.06
CN(C)CCOc1ccc(Nc2cc(-n3ncc4ccccc43)ncn2)nc1 [Compound 7]	4.53	< 4.52	–
CN(C)CCOc1ccc(Nc2cc(-n3ccc4ccccc43)ncn2)nc1 [Compound 8]	5.35	5.63	–
CN(C)CCOc1ccc(Nc2cc(-n3cnc4cccnc43)ncn2)nc1 [Compound 10]	5.80	6.12	–
CN(C)CCOc1ccc(Nc2cc(-n3cnc4ncccc43)ncn2)nc1 [Compound 11]	6.79	7.55	fold improvement in CDK2 inhibition (CDK2/cyclinE): 5 fold; fold increase in HSF1-stress pathway inhibition (HSF1-stress pathway): 3 fold
Cc1ccc2ncn(-c3cc(Nc4ccc(OCCN(C)C)cn4)ncn3)c2c1 [Compound 12]	6.92	7.41	–
Cc1nc2ccccc2n1-c1cc(Nc2ccc(OCCN(C)C)cn2)ncn1 [Compound 13]	5.34	5.37	fold drop in potency in the CDK2 assay (CDK2/cyclinE): > 7 fold; fold drop in potency in the HSF1-stress pathway assay (HSF1-stress pathway): > 7 fold
CN1CCC[C@H]1COc1ccc(Nc2cc(-n3cnc4ccccc43)ncn2)nc1 [Compound 16]	6.27	–	–
CN1CCC[C@@H]1COc1ccc(Nc2cc(-n3cnc4ccccc43)ncn2)nc1 [Compound 17]	6.31	–	pIC50 (CDK9/cyclin T1): 8.10
c1ccc2c(c1)ncn2-c1cc(Nc2ccc(OCCN3CCCCC3)cn2)ncn1 [Compound 19]	6.45	7.24	fold increase in HSF1-stress pathway inhibition (HSF1-stress pathway): 2 fold; pIC50 (CDK9/cyclin T1): 8.10
CN1CCN(c2ccc(Nc3cc(-n4cnc5ccccc54)ncn3)nc2)CC1 [Compound 21]	6.19	6.35	pIC50 (CDK9/cyclin T1): 7.66
C[C@H]1CN(C)CCN1c1ccc(Nc2cc(-n3cnc4ccccc43)ncn2)nc1 [Compound 22]	6.08	5.86	–
c1cnc2ncn(-c3cc(Nc4ccc(OCCN5CCCCC5)cn4)ncn3)c2c1 [Compound 25]	7.26	7.82	pIC50 [1]: 7.82; GI50 (U2OS cells; U2OS cells, single agent, average of two determinations): 5 nM; ratio of activity CDK9/CyclinT1 (CDK9/CyclinT1 [2]): 1
CC(C)c1c2cc(-c3ccnc(NC4CCC(NC5CCOCC5)CC4)n3)ccc2nn1C (stereo not drawn) [LY2857785]	–	–	ratio of activity CDK9/CyclinT1 (CDK9/CyclinT1 [3]): 1; ratio of activity CDK7/CyclinH/MAT1 (CDK7/CyclinH/MAT1): 22
CC(C)(C)c1cnc(CSc2cnc(NC(=O)C3CCNCC3)s2)o1 [SNS-032, reference compound]	–	–	pIC50 [1]: 6.12; GI50 (U2OS cells; U2OS): 370 nM

Continued, in another order:

pIC50 (CDK2/cyclinE)	pIC50 (HSF1-stress pathway)	SMILES	other results
6.43	6.78	CN(C)CCCOc1ccc(Nc2cc(-n3cnc4ccccc43)ncn2)nc1 [Compound 4]	–
< 4.00	4.75	CN(C)CCOc1ccc(Nc2cc(-c3cnc4ccccc4c3)ncn2)nc1 [Compound 9]	activity in the CDK2 assay (CDK2/cyclinE; compared to benzimidazole 3): inactive; fold drop in potency in the HSF1-stress pathway assay (HSF1-stress pathway): ~200 fold
7.23	6.07	c1ccc(Nc2cc(-n3cnc4ccccc43)ncn2)nc1 [Compound 14]	fold improvement in CDK2 inhibition (CDK2/cyclinE): 10 fold; fold drop in potency in the HSF1-stress pathway assay (HSF1-stress pathway): 10 fold
6.16	6.70	CN(C)CCCc1ccc(Nc2cc(-n3cnc4ccccc43)ncn2)nc1 [Compound 15]	–
6.26	6.53	c1ccc2c(c1)ncn2-c1cc(Nc2ccc(OCCN3CCOCC3)cn2)ncn1 [Compound 18]	–
5.91	6.05	CN1CCC(Oc2ccc(Nc3cc(-n4cnc5ccccc54)ncn3)nc2)CC1 [Compound 20]	–
6.11	6.21	CN(C)C1CCN(c2ccc(Nc3cc(-n4cnc5ccccc54)ncn3)nc2)CC1 [Compound 23]	–
6.84	–	CN1CCC[C@H]1COc1ccc(Nc2cc(-n3cnc4ncccc43)ncn2)nc1 [Compound 24]	–
